From ChEMBL document CHEMBL3044884, “Effect of 6-methoxybenzoxazolin-2-one (MBOA) on the reproduction rate of the grain aphid (Sitobion avenae F.)” (2006)

Legend:
Assay type in all cases: functional
[1] = test system: Sitobion avenae; test: Insecticidal activity against 1 to 3 day old Sitobion avenae apterous virginoparous nymphs raised on artificial diet exposed to compound at 0.1 mM assessed as intrinsic reproduction rate of increase measured after 4 weeks (reference value: 0.00162 intrinsic reproduction rate of increase)
[2] = test system: Sitobion avenae; test: Insecticidal activity against 1 to 3 day old Sitobion avenae apterous virginoparous nymphs raised on artificial diet exposed to compound at 0.5 mM assessed as intrinsic reproduction rate of increase measured after 4 weeks (reference value: 0.00162 intrinsic reproduction rate of increase)
[3] = test system: Sitobion avenae; test: Insecticidal activity against 1 to 3 day old Sitobion avenae apterous virginoparous nymphs raised on artificial diet exposed to compound at 0.2 mM assessed as intrinsic reproduction rate of increase measured after 4 weeks (reference value: 0.00162 intrinsic reproduction rate of increase)
[4] = test system: Sitobion avenae; test: Insecticidal activity against 1 to 3 day old Sitobion avenae apterous virginoparous nymphs raised on artificial diet exposed to compound at 8 mM assessed as intrinsic reproduction rate of increase measured after 4 weeks (reference value: 0.00162 intrinsic reproduction rate of increase)
[5] = test system: Sitobion avenae; test: Insecticidal activity against 1 to 3 day old Sitobion avenae apterous virginoparous nymphs raised on artificial diet exposed to compound at 0.05 mM assessed as intrinsic reproduction rate of increase measured after 4 weeks (reference value: 0.00162 intrinsic reproduction rate of increase)
[6] = test system: Sitobion avenae; test: Insecticidal activity against 1 to 3 day old Sitobion avenae apterous virginoparous nymphs raised on artificial diet exposed to compound at 0.3 mM assessed as intrinsic reproduction rate of increase measured after 4 weeks (reference value: 0.00162 intrinsic reproduction rate of increase)

In the case of `COc1ccc2[nH]c(=O)oc2c1` [COIXOL], the Activity [1] is reported as 0.00296, the Activity [2] is reported as 0.00048 and the Activity [3] is reported as 0.00139. For the same compound, the Activity [4] was 0, the Activity [5] was 0.0015 and the Activity [6] was 0.00075.
